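Each compound was tested at five concentrations against cells in 96-well plates for 48 hours. GI50: concentration for 50% inhibition of growth.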 Activity calls are given as the source filed them. Cut-off read from the data, not from the text of the source: active = GI50 up to about 1.1 µM and inactive = higher.
Experiments:
Assay in all cases: NCI-60 cell line screen, 48 h
PC-3 = tested on: PC-3
MDA-MB-435 = tested on: MDA-MB-435
EKVX = tested on: EKVX
786-0 = tested on: 786-0
U-251 = tested on: U-251
NCI-H522 = tested on: NCI-H522
UACC-257 = tested on: UACC-257
MDA-MB-231 = tested on: MDA-MB-231
NCI-H460 = tested on: NCI-H460
OVCAR-3 = tested on: OVCAR-3
SK-OV-3 = tested on: SK-OV-3
A549 = tested on: A549
K562 = tested on: K562
SN12C = tested on: SN12C
BT-549 = tested on: BT-549
OVCAR-4 = tested on: OVCAR-4
RPMI-8226 = tested on: RPMI-8226
NCI-H226 = tested on: NCI-H226
CCRF-CEM = tested on: CCRF-CEM
HL-60 = tested on: HL-60

Measured: GI50

CCCCn1cnc2c(SC)ncnc21
inactive: PC-3 > 100 µM | MDA-MB-435 > 100 µM | EKVX 41.7 µM | 786-0 > 100 µM | U-251 > 100 µM | NCI-H522 > 100 µM | UACC-257 > 100 µM | MDA-MB-231 > 100 µM | NCI-H460 > 100 µM | OVCAR-3 > 100 µM | SK-OV-3 > 100 µM | A549 > 100 µM | K562 44.8 µM | SN12C > 100 µM | BT-549 > 100 µM | OVCAR-4 > 100 µM | RPMI-8226 > 100 µM

CC(C)(C)OC(=O)NC(Cc1ccc(OC(C)(C)C)cc1)C(=O)N[C@H]1CCC[C@H]1C(=O)NC(Cc1ccccc1)C(=O)N1CCCC1C(N)=O (stereo partly specified)
inactive: PC-3 > 100 µM | MDA-MB-435 > 100 µM | EKVX > 100 µM | NCI-H226 > 100 µM | 786-0 > 100 µM | U-251 > 100 µM | NCI-H522 > 100 µM | UACC-257 > 100 µM | MDA-MB-231 > 100 µM | NCI-H460 > 100 µM | OVCAR-3 > 100 µM | SK-OV-3 > 100 µM | A549 > 100 µM | K562 > 100 µM | SN12C > 100 µM | CCRF-CEM > 100 µM | OVCAR-4 > 100 µM | RPMI-8226 80.5 µM

CCOC(=O)c1c(/C=N\Nc2ccccc2)nc2ccccc2c1-c1ccccc1
inactive: EKVX 61.9 µM | NCI-H226 45.7 µM | 786-0 40.6 µM | U-251 38.2 µM | NCI-H522 24.9 µM | UACC-257 70.3 µM | NCI-H460 37.8 µM | OVCAR-3 31.7 µM | SK-OV-3 > 100 µM | HL-60 15 µM | A549 50.9 µM | K562 29.5 µM | SN12C 38.1 µM | CCRF-CEM 19.2 µM | OVCAR-4 29.9 µM | RPMI-8226 20.1 µM

O=C1c2ccccc2-c2nnc3c(c21)-c1ccccc1C3
inactive: PC-3 > 100 µM | MDA-MB-435 > 100 µM | EKVX 18.5 µM | NCI-H226 43.5 µM | 786-0 > 100 µM | U-251 67 µM | NCI-H522 48.6 µM | UACC-257 > 100 µM | MDA-MB-231 > 100 µM | NCI-H460 29.2 µM | SK-OV-3 > 100 µM | HL-60 60.5 µM | A549 62.7 µM | SN12C > 100 µM | CCRF-CEM 89.3 µM | RPMI-8226 57.1 µM

O=[N+]([O-])/C(C(Cl)=C(Cl)Cl)=C(\Nc1ccccc1)n1nnc2ccccc21
inactive: PC-3 40.6 µM | MDA-MB-435 26.8 µM | EKVX > 100 µM | NCI-H226 > 100 µM | 786-0 48.9 µM | U-251 29.9 µM | UACC-257 > 100 µM | MDA-MB-231 27 µM | NCI-H460 77.8 µM | OVCAR-3 48.1 µM | SK-OV-3 71.3 µM | A549 > 100 µM | K562 > 100 µM | SN12C > 100 µM | BT-549 27 µM | CCRF-CEM 21.4 µM | OVCAR-4 17.6 µM | RPMI-8226 21.6 µM

Cc1ccc(S(=O)(=O)NNC(=S)Nc2cccc3ccccc23)cc1
inactive: PC-3 37.2 µM | MDA-MB-435 41.5 µM | EKVX 38.3 µM | NCI-H226 29.4 µM | 786-0 14.2 µM | U-251 40.6 µM | NCI-H522 16.7 µM | UACC-257 13.8 µM | MDA-MB-231 54.8 µM | NCI-H460 > 100 µM | SK-OV-3 43.3 µM | HL-60 28.3 µM | A549 49.4 µM | K562 35.5 µM | SN12C 33.7 µM | CCRF-CEM 34.7 µM | OVCAR-4 22.3 µM | RPMI-8226 37.4 µM

CCOC(=O)C12CCCC1(O)N(NC(=O)OC(C)(C)C)C(C)=C2C(=O)OC (stereo unspecified)
inactive: EKVX > 100 µM | NCI-H226 > 100 µM | 786-0 > 100 µM | U-251 > 100 µM | NCI-H522 97.3 µM | UACC-257 > 100 µM | NCI-H460 > 100 µM | OVCAR-3 > 100 µM | SK-OV-3 > 100 µM | HL-60 > 100 µM | A549 > 100 µM | K562 > 100 µM | SN12C > 100 µM | CCRF-CEM > 100 µM | OVCAR-4 > 100 µM | RPMI-8226 > 100 µM

Cc1cccc(C)c1NC(=O)CCc1nnc2s/c(=C\c3ccc(Cl)cc3)c(=O)n12
inactive: EKVX > 100 µM | NCI-H226 97.5 µM | 786-0 44 µM | U-251 83.9 µM | NCI-H522 > 100 µM | UACC-257 > 100 µM | NCI-H460 > 100 µM | OVCAR-3 > 100 µM | SK-OV-3 31.8 µM | HL-60 > 100 µM | A549 > 100 µM | K562 > 100 µM | SN12C > 100 µM | CCRF-CEM > 100 µM | OVCAR-4 > 100 µM | RPMI-8226 61 µM

O=CN1CCN(C=S)CC1
inactive: EKVX > 100 µM | NCI-H226 > 100 µM | 786-0 > 100 µM | U-251 > 100 µM | NCI-H522 > 100 µM | UACC-257 > 100 µM | NCI-H460 > 100 µM | OVCAR-3 > 100 µM | SK-OV-3 > 100 µM | HL-60 > 100 µM | A549 > 100 µM | K562 > 100 µM | SN12C > 100 µM | CCRF-CEM > 100 µM | OVCAR-4 > 100 µM | RPMI-8226 > 100 µM

COC(=O)[C@@H]1C(=O)O[C@@H](c2cc(OC)c(OC)cc2OC)[C@@H]1C(=O)OC.COC(=O)[C@H]1C(=O)O[C@@H](c2cc(OC)c(OC)cc2OC)[C@@H]1C(=O)OC
inactive: EKVX > 100 µM | NCI-H226 > 100 µM | 786-0 > 100 µM | U-251 > 100 µM | NCI-H522 > 100 µM | UACC-257 > 100 µM | NCI-H460 > 100 µM | OVCAR-3 > 100 µM | SK-OV-3 > 100 µM | HL-60 > 100 µM | A549 > 100 µM | K562 > 100 µM | SN12C > 100 µM | CCRF-CEM > 100 µM | OVCAR-4 > 100 µM | RPMI-8226 > 100 µM

O=C(Nc1cccc(C(F)(F)F)c1)c1cc(Br)cc(Br)c1O [FLUOROSALAN]
inactive: PC-3 2.32 µM | MDA-MB-435 3.2 µM | EKVX 2.19 µM | NCI-H226 3.51 µM | 786-0 3.63 µM | U-251 3.79 µM | NCI-H522 3 µM | UACC-257 2.52 µM | MDA-MB-231 4.34 µM | NCI-H460 3.02 µM | OVCAR-3 2.24 µM | SK-OV-3 2.81 µM | HL-60 2.34 µM | A549 2.83 µM | K562 2.08 µM | SN12C 3.59 µM | CCRF-CEM 3.22 µM | OVCAR-4 3.68 µM | RPMI-8226 2.08 µM

Reference: ChEMBL document CHEMBL1201862, “PubChem BioAssay data set” (2004)
